Patent US20250387355A1 (SpringWorks Therapeutics Inc., priority 2024, published 2025)

Tested on: NF1-associated plexiform neurofibromas (PNs)
Assay: Phase 2b trial of mirdametinib: efficacy by volumetric MRI per REiNS criteria (BICR)
Assay type: in vivo, human
Conditions: for DoR ≥12 months, %: responders, first DoR line (r12)
Experimental: Study treatment was administered orally at a twice daily (BID) dose specified in the table below. Dosing was on a 28-day Cycle (4-week course) with a 3 week on/1 week off schedule. The treatment period will last for up to 24 Cycles followed by a 30-day Safety Follow-Up period.
A partial response was defined as PN decrease ≥20% compared to baseline using centrally read MRI volumetric analysis.
The major efficacy outcome measure was confirmed objective response rate (ORR), defined as the percentage of patients with complete response (disappearance of the target PN) or confirmed partial response (≥20% reduction in PN volume confirmed at a subsequent tumor assessment within 2-6 months during the 24-cycle treatment phase). Responses were assessed by blinded independent central review (BICR) using volumetric magnetic resonance imaging (MRI) analysis per Response Evaluation in Neurofibromatosis and Schwannomatosis (REiNS) criteria. A secondary efficacy objective was to determine the duration of response for patients who achieved a confirmed objective response.

O=C(NOC[C@H](O)CO)c1ccc(F)c(F)c1Nc1ccc(I)cc1F (single isomer, unassigned) [mirdametinib] was tested, and the “Confirmed Complete Response, n (%)” value (Adult (N = 58)) was 0, the “Confirmed Objective Response Rate per REINS criteria by BICR, (%)” value (Adult (N = 58)) was “(41) %” and the “Confirmed Partial Response, (%)” value (Adult (N = 58)) was “(41) %”. For the same molecule, the “DoR ≥12 months, %” value (Adult) was “(88%)”, the “Confirmed Complete Response, n (%)” value (Pediatric (N = 56)) was 0 and the “Confirmed Objective Response Rate per REINS criteria by BICR, (%)” value (Pediatric (N = 56)) was “(52) %”. For the same molecule, the “Confirmed Partial Response, (%)” value (Pediatric (N = 56)) was “(52) %” and the “DoR ≥12 months, %” value (Pediatric) was “(90%)”.
